What was measured:
[1] = molecular target: T1, Peregrin (Homo sapiens) (UniProt P55201); settings: Compound concentration 20.0 uM
T1 sequence (whole entry): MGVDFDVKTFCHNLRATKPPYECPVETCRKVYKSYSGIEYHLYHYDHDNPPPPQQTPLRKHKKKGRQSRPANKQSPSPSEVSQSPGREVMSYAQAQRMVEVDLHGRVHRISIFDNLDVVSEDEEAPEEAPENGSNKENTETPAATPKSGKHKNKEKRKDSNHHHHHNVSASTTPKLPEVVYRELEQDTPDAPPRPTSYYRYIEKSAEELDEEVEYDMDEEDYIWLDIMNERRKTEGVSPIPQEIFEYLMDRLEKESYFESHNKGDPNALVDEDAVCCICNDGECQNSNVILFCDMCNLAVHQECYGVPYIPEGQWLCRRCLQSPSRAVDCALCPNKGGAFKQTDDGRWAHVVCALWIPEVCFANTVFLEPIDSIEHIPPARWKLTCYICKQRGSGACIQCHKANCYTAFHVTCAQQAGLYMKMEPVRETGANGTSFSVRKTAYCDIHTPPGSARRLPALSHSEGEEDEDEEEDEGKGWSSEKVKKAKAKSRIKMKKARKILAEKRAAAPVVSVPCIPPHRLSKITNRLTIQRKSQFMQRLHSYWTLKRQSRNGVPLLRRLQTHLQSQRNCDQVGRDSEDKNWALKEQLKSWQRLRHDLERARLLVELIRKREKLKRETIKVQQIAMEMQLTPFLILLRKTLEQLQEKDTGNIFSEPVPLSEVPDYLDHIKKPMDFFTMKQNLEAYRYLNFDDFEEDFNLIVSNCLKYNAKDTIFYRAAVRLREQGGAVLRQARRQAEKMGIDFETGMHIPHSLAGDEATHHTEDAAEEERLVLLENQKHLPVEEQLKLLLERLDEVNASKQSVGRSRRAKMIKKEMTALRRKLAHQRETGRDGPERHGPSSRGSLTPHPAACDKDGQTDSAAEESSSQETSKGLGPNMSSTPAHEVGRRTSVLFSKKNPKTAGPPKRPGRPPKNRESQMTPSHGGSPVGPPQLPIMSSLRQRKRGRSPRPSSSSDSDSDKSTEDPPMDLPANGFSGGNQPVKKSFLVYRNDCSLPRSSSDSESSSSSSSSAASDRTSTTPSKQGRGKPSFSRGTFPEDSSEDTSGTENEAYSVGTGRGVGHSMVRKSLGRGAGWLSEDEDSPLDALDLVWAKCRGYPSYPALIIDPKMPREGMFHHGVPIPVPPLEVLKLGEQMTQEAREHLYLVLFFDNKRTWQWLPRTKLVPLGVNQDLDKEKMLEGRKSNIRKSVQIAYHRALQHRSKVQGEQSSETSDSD

[2] = molecular target: Fibroblast growth factor receptor 2 (Homo sapiens) (UniProt P21802); settings: Compound concentration 20.0 uM
Fibroblast growth factor receptor 2 (Homo sapiens), sequence (P21802 22-821 limits assumed): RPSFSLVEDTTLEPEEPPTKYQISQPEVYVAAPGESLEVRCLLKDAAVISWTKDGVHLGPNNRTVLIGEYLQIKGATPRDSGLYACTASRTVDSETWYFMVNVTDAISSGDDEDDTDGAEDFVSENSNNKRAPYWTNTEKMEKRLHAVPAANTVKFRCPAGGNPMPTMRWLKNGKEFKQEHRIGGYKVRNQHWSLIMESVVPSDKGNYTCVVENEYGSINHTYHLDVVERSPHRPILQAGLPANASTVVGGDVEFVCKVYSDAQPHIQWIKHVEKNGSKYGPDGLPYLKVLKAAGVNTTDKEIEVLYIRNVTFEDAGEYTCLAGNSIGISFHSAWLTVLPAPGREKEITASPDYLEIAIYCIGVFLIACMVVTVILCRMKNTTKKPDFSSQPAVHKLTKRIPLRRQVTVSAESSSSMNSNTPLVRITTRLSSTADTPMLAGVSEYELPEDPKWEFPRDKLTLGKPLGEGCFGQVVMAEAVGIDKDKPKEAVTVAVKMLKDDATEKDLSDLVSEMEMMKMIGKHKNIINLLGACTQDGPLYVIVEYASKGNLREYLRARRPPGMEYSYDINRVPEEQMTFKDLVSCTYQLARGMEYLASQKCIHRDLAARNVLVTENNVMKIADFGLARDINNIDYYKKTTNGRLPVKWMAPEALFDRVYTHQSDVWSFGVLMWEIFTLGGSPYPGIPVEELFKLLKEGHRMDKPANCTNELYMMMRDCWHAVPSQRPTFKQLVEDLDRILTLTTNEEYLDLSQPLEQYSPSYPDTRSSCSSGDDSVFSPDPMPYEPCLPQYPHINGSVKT
Description: Thermal Shift Assay. Domain: start/stop: T457-E768

Row | Structure (SMILES) | ΔTm [1] [°C] | ΔTm [2] [°C]
1 | CNC(=O)c1cc(Nc2ccnc(Nc3ccc(CCNC(=O)OC(C)(C)C)cc3)n2)n[nH]1 | -1.87 | 0.64
2 | CNCCCN1c2ccccc2CCc2ccccc21 | 1.05 | -0.25
3 | CCOC(=O)NCCCC(=O)NCCc1ccccc1 | -0.92 | 0.51
4 | Cc1ccc(NC2=CC(=O)c3sc(C)nc3C2=O)cc1 | -1.72 | -0.13
5 | CCc1c(C)nc(-c2ccc(Cl)s2)nc1Nc1ccc(CC(=O)O)cc1 | 1.24 | -0.19
6 | O=C(NCCCc1ccccc1)c1cccc(-c2cc(O)c3ncccc3c2)c1 | 3.29 | 0.19
7 | Cn1c(OC[C@H]2CC[C@H](C(F)(F)F)CC2)nn2c(C3CCOCC3)ncc2c1=O | 2.25 | -0.94
8 | CS(=O)(=O)c1ccc(Oc2cc(F)cc(C#N)c2)c2c1[C@H](O)C(F)(F)C2 | 1.71 | -0.21
9 | Cc1nc(-c2cnc(NC(C)C)n(C)c2=O)ccc1Oc1ccnc(-c2cnn(C)c2)c1 | -1.33 | 0.6
10 | O=C(NCCCCCCCCNC(=O)C(Cl)Cl)C(Cl)Cl | 0.99 | -0.34
11 | C[C@]12O[C@H](C[C@]1(O)CO)n1c3ccccc3c3c4c(c5c6ccccc6n2c5c31)CNC4=O | -0.7 | 5.19
12 | CC(=O)NCC(=O)N1CCC[C@@H]1B(O)O | 2.29 | 0.51
13 | NC(=O)c1ccc(Oc2ccc(C(N)=O)cc2)cc1 | -2.11 | 0.24
14 | C[C@]1(c2nc3c(C(N)=O)cccc3[nH]2)CCCN1 | 1.27 | -0.4
15 | O=c1[nH]c(N2CCC3(CC2)CN(CCO)c2cc(F)cc(F)c23)nc2c1CCCC2 | 1.75 | -0.52
16 | CNCC[C@@H](Oc1ccccc1C)c1ccccc1 | -1.53 | 0.34
17 | CCN(CC)C(=O)/C(C#N)=C/c1cc(O)c(O)c([N+](=O)[O-])c1 | 1.31 | 0.06

Row | Structure (SMILES) | ΔTm [1] [°C] | ΔTm [2] [°C]
18 | Cc1sc(C(=O)c2cncnc2N[C@@H]2C[C@H](COS(N)(=O)=O)[C@@H](O)C2)cc1[C@@H]1NCCc2ccc(Cl)cc21 | -1.17 | 0.33
19 | C[C@H](Nc1nc2c(cnn2C2CCCC2)c(=O)[nH]1)c1ccc(Cl)cc1 | 1.99 | 0.2
20 | Cc1cnc(-c2ccccc2C(C)C)nc1NCc1ccc(-n2ccnn2)cc1 | -1.14 | -0.47
21 | Oc1nc(-c2ccc(C(F)(F)F)cc2)nc2c1CSCC2 | 0.57 | -0.47
22 | CN(C)NC(=O)CCC(=O)O | 0.25 | 0.18
23 | Cc1ccc(C)c(-n2sc3cc(F)ccc3c2=O)c1 | -11.8 | -0.26
24 | CNCCN(C)Cc1cn[nH]c1-c1ccc(OC2CC(OCCC3CCOCC3)C2)cc1 (stereo not drawn) | -0.84 | 0.29
25 | CNC(=O)Cn1cc(-c2ccc3c(c2)[C@H](F)C[C@]32NC(=O)N(CC(=O)N(Cc3ccc(F)cc3)[C@@H](C)C(F)(F)F)C2=O)cn1 | -0.07 | -0.18
26 | O=c1cc(-c2ccc(O)cc2)oc2c(CN3CCN(Cc4cccs4)CC3)c(O)cc(O)c12 | 3.1 | 1.05
27 | CC(C)(CNC(=O)c1cccc(-c2noc(C(F)(F)F)n2)c1)c1coc(-c2ccccc2)n1 | -1.34 | 0.16
28 | O=C(C1CC1)N1CCN(Cn2sc3ccccc3c2=O)CC1 | -1.36 | 0.46
29 | CN(C)CCCCC(=O)Nc1ccc(NC(=S)NC(=O)c2ccc(C(C)(C)C)cc2)cc1 | -0.35 | -0.03
30 | NS(=O)(=O)OC[C@H]1C[C@@H](Nc2ncncc2C(=O)c2ccn(Cc3cccc(Br)c3)n2)C[C@@H]1O | 1.11 | -0.38
31 | CC/C(=C(/c1ccc(/C=C/C(=O)O)cc1)c1ccc2[nH]ncc2c1)c1ccc(F)cc1Cl | 0 | -5.4
32 | O=C(c1ccc2[nH]ccc2c1)N1CCN(S(=O)(=O)c2ccc3[nH]c(=O)oc3c2)CC1 | -0.16 | 1.77
33 | CC(=O)N1CCN([C@H]2CCC[C@@H](NC(=O)c3cc4c(F)ccc(C)c4[nH]3)C2)CC1 | -1.02 | -2.8
34 | CCOc1ccc(S(=O)(=O)Nc2ccc(Cl)cc2C#Cc2cnc(C(=O)O)cc2OC)c2ncccc12 | 0 | 0.19

— ChEMBL document CHEMBL5724796, “Tm Shift (DSF) assay results for EUbOPEN Chemogenomics Library” (2024)
